# Reference: PubChem BioAssay (NCI)
#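 Where inhibition never reached the appropriate level, the endpoint shown equals the highest concentration tested. Otherwise, values were interpolated linearly from a five-concentration, 48-hour dose response in 96-well plates. GI50 marks 50% less growth. The concentration for full growth arrest is given as TGI.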
# Key:
# Test in all cases: growth of human tumour cells (NCI), 48 h
# [1] = system: SW-620 colon
# [2] = system: SK-MEL-28 melanoma
# [3] = system: OVCAR-5 ovarian
# [4] = system: PC-3 prostate
# [5] = system: K-562 leukemia
# [6] = system: A549 NSCLC
# [7] = system: NCI-H23 lung
# [8] = system: NCI-H522 lung
# [9] = system: OVCAR-4 ovarian
# [10] = system: HOP-92 NSCLC
# [11] = system: ACHN renal
# [12] = system: RPMI-8226 leukemia
# [13] = system: MOLT-4 leukemia
# [14] = system: HCT-15 colon
# [15] = system: NCI-H226 lung
# [16] = system: KM12 colon
# [17] = system: NCI/ADR-RES ovarian
# [18] = system: UACC-62 melanoma
# [19] = system: SK-MEL-5 melanoma
# [20] = system: MALME-3M melanoma
# [21] = system: HCC-2998 colon
# [22] = system: HCT-116 colon
# [23] = system: SR leukemia
# [24] = system: CAKI-1 renal
# [25] = system: NCI-H460 lung
# [26] = system: T-47D breast
# [27] = system: MDA-MB-435
# [28] = system: TK-10 renal
# [29] = system: HL-60(TB) leukemia
# [30] = system: UO-31 renal
# [31] = system: OVCAR-3 ovarian
# [32] = system: MDA-MB-231 breast
# [33] = system: SNB-75 CNS
# [34] = system: LOX IMVI melanoma
# [35] = system: OVCAR-8 ovarian
# [36] = system: SK-MEL-2 melanoma
# [37] = system: SK-OV-3 ovarian
# [38] = system: UACC-257 melanoma
# [39] = system: BT-549 breast
# [40] = system: SF-539 CNS
# [41] = system: EKVX NSCLC
# [42] = system: DU-145 prostate
# [43] = system: HS 578T breast
# [44] = system: MCF7 breast
# [45] = system: HOP-62 NSCLC
# [46] = system: CCRF-CEM leukemia
# [47] = system: SNB-19 CNS
# [48] = system: SF-268 CNS
# [49] = system: U251 CNS
# [50] = system: RXF 393 renal
# [51] = system: HT29 colon
# [52] = system: M14 melanoma
# [53] = system: COLO 205 colon
# [54] = system: SF-295 CNS
# [55] = system: A498 renal
# [56] = system: 786-0 renal
# [57] = system: IGROV1 ovarian
# [58] = system: SN12C renal
compound,measurement,setting,value
CCc1nc2cc(/C=C/C(=O)NO)ccc2c(=O)n1CCc1ccc(OC)cc1,GI50,[1],1.93 µM
same,TGI,[1],13 µM
same,GI50,[2],3.31 µM
same,TGI,[2],15.1 µM
same,GI50,[3],2.5 µM
same,TGI,[3],30 µM
same,GI50,[4],3.32 µM
same,TGI,[4],> 100 µM
same,GI50,[5],3.07 µM
same,TGI,[5],> 100 µM
same,GI50,[6],3.56 µM
same,TGI,[6],15.1 µM
same,GI50,[7],2.4 µM
same,TGI,[7],7.89 µM
same,GI50,[8],1.43 µM
same,TGI,[8],4.66 µM
same,GI50,[9],2.96 µM
same,TGI,[9],58.7 µM
same,GI50,[10],1.9 µM
same,TGI,[10],5.7 µM
same,GI50,[11],1.85 µM
same,TGI,[11],4.36 µM
same,GI50,[12],2.38 µM
same,TGI,[12],56.1 µM
same,GI50,[13],2.5 µM
same,TGI,[13],> 100 µM
same,GI50,[14],3.24 µM
same,TGI,[14],> 100 µM
same,GI50,[15],2.87 µM
same,TGI,[15],17.3 µM
same,GI50,[16],3.42 µM
same,TGI,[16],> 100 µM
same,GI50,[17],1.35 µM
same,TGI,[17],12.3 µM
same,GI50,[18],1.59 µM
same,TGI,[18],4.33 µM
same,GI50,[19],1.96 µM
same,TGI,[19],5.09 µM
same,GI50,[20],1.53 µM
same,TGI,[20],8.28 µM
same,GI50,[21],4.06 µM
same,TGI,[21],62.1 µM
same,GI50,[22],1.59 µM
same,TGI,[22],9.51 µM
same,GI50,[23],1.94 µM
same,TGI,[23],> 100 µM
same,GI50,[24],2.98 µM
same,TGI,[24],10.7 µM
same,GI50,[25],1.83 µM
same,TGI,[25],10.1 µM
same,GI50,[26],1.57 µM
same,TGI,[26],7.13 µM
same,GI50,[27],2.7 µM
same,TGI,[27],42.6 µM
same,GI50,[28],1.6 µM
same,TGI,[28],5.79 µM
same,GI50,[29],3.47 µM
same,TGI,[29],> 100 µM
same,GI50,[30],1.5 µM
same,TGI,[30],5.13 µM
same,GI50,[31],2.03 µM
same,TGI,[31],7.19 µM
same,GI50,[32],2.31 µM
same,TGI,[32],7.66 µM
same,GI50,[33],2.62 µM
same,TGI,[33],33.2 µM
same,GI50,[34],1.68 µM
same,TGI,[34],3.19 µM
same,GI50,[35],2.27 µM
same,TGI,[35],15.5 µM
same,GI50,[36],3.66 µM
same,TGI,[36],24.9 µM
same,GI50,[37],2.42 µM
same,TGI,[37],6.11 µM
same,GI50,[38],2.93 µM
same,TGI,[38],9.33 µM
same,GI50,[39],4.02 µM
same,TGI,[39],34.6 µM
same,GI50,[40],1.91 µM
same,TGI,[40],6.29 µM
same,GI50,[41],3.91 µM
same,TGI,[41],43.9 µM
same,GI50,[42],2.19 µM
same,TGI,[42],10.3 µM
same,GI50,[43],2.13 µM
same,TGI,[43],34.3 µM
same,GI50,[44],2.38 µM
same,TGI,[44],17.7 µM
same,GI50,[45],2.45 µM
same,TGI,[45],7.68 µM
same,GI50,[46],3.17 µM
same,TGI,[46],> 100 µM
same,GI50,[47],3.21 µM
same,TGI,[47],21.4 µM
same,GI50,[48],2.44 µM
same,TGI,[48],13.1 µM
same,GI50,[49],1.99 µM
same,TGI,[49],4.87 µM
same,GI50,[50],1.74 µM
same,TGI,[50],4.74 µM
same,GI50,[51],2.31 µM
same,TGI,[51],49.5 µM
same,GI50,[52],2.88 µM
same,TGI,[52],10.4 µM
same,GI50,[53],1.94 µM
same,TGI,[53],5.13 µM
same,GI50,[54],2.16 µM
same,TGI,[54],5.39 µM
same,GI50,[55],1.17 µM
same,TGI,[55],3.39 µM
same,GI50,[56],2.31 µM
same,TGI,[56],6.28 µM
Oc1c(O)c(Cl)c(Cl)c(Cl)c1Cl,GI50,[1],3.17 µM
same,TGI,[1],30.3 µM
same,GI50,[2],4.99 µM
same,TGI,[2],37.2 µM
same,GI50,[3],9.62 µM
same,TGI,[3],42.5 µM
same,GI50,[4],3.43 µM
same,TGI,[4],18.1 µM
same,GI50,[5],3.49 µM
same,TGI,[5],> 100 µM
same,GI50,[6],4.2 µM
same,TGI,[6],24.1 µM
same,GI50,[7],3.04 µM
same,TGI,[7],9.28 µM
same,GI50,[8],1.65 µM
same,TGI,[8],4.54 µM
same,GI50,[9],2.44 µM
same,TGI,[9],8.86 µM
same,GI50,[10],2.11 µM
same,TGI,[10],7.37 µM
same,GI50,[11],5.15 µM
same,TGI,[11],35.5 µM
same,GI50,[12],2.23 µM
same,TGI,[12],7.38 µM
same,GI50,[13],3.51 µM
same,TGI,[13],69.7 µM
same,GI50,[14],3.56 µM
same,TGI,[14],19.4 µM
same,GI50,[15],4.62 µM
same,TGI,[15],24.3 µM
same,GI50,[16],3.96 µM
same,TGI,[16],19.7 µM
same,GI50,[17],3.01 µM
same,TGI,[17],10.3 µM
same,GI50,[18],2.95 µM
same,TGI,[18],10.2 µM
same,GI50,[19],3.37 µM
same,TGI,[19],13.4 µM
same,GI50,[20],2.83 µM
same,TGI,[20],13.4 µM
same,GI50,[21],16.3 µM
same,TGI,[21],30.7 µM
same,GI50,[22],2.88 µM
same,TGI,[22],8.75 µM
same,GI50,[23],2.73 µM
same,TGI,[23],> 100 µM
same,GI50,[24],6.33 µM
same,TGI,[24],23 µM
same,GI50,[25],2.62 µM
same,TGI,[25],13.3 µM
same,GI50,[26],3.26 µM
same,TGI,[26],11.3 µM
same,GI50,[27],3.42 µM
same,TGI,[27],18.1 µM
same,GI50,[28],9.42 µM
same,TGI,[28],47.7 µM
same,GI50,[29],1.85 µM
same,TGI,[29],7.21 µM
same,GI50,[30],2.74 µM
same,TGI,[30],13.1 µM
same,GI50,[31],2.44 µM
same,TGI,[31],14.4 µM
same,GI50,[32],5.1 µM
same,TGI,[32],38.5 µM
same,GI50,[33],2.52 µM
same,TGI,[33],21 µM
same,GI50,[34],3.65 µM
same,TGI,[34],20.3 µM
same,GI50,[57],3.06 µM
same,TGI,[57],10.4 µM
same,GI50,[35],2.89 µM
same,TGI,[35],13.9 µM
same,GI50,[36],4.1 µM
same,TGI,[36],15.2 µM
same,GI50,[37],16 µM
same,TGI,[37],44.5 µM
same,GI50,[38],2.92 µM
same,TGI,[38],9.6 µM
same,GI50,[39],4.51 µM
same,TGI,[39],31.5 µM
same,GI50,[40],3.72 µM
same,TGI,[40],14.7 µM
same,GI50,[41],2.95 µM
same,TGI,[41],18.9 µM
same,GI50,[42],7.1 µM
same,TGI,[42],> 100 µM
same,GI50,[43],3.75 µM
same,TGI,[43],23 µM
same,GI50,[44],3.25 µM
same,TGI,[44],16.2 µM
same,GI50,[45],4.54 µM
same,TGI,[45],17.3 µM
same,GI50,[46],2.73 µM
same,TGI,[46],27.7 µM
same,GI50,[48],3.09 µM
same,TGI,[48],> 100 µM
same,GI50,[49],4.21 µM
same,TGI,[49],86.2 µM
same,GI50,[50],1.61 µM
same,TGI,[50],13.9 µM
same,GI50,[51],4.89 µM
same,TGI,[51],22.4 µM
same,GI50,[52],3.51 µM
same,TGI,[52],15.4 µM
same,GI50,[53],12.5 µM
same,TGI,[53],33.7 µM
same,GI50,[54],3.23 µM
same,TGI,[54],12.7 µM
same,GI50,[55],2.67 µM
same,TGI,[55],8.92 µM
same,GI50,[56],7.98 µM
same,TGI,[56],33 µM
same,GI50,[58],3.79 µM
same,TGI,[58],50 µM
